Common to all, as to assay: competitive isoTOP-ABPP
Experiment [1] deals with T1, IFIT3 Interferon-induced protein with tetratricopeptide (Homo sapiens, UniProt O14879).
T1 construct: isoTOP-ABPP experiments performed in cell lysates (in vitro); endogenous in cells; host or cells: MDA-MB-231 soluble lysate
T1 sequence (O14879 1-490): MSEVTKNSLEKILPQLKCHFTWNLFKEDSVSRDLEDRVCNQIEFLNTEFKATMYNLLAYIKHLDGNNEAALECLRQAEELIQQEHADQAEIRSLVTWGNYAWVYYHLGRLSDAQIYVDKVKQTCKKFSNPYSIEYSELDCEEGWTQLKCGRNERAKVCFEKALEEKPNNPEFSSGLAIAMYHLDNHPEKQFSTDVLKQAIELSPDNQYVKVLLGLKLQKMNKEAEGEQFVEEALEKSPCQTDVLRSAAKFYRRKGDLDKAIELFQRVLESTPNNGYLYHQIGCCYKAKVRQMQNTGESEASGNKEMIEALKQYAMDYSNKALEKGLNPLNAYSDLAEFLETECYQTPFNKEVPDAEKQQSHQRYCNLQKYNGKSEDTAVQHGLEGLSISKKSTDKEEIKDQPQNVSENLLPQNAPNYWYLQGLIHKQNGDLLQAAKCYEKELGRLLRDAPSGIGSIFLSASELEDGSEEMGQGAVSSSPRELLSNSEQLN
The format is binding. The following applies: for isoTOP-ABPP ratio (R) at liganded lysine O14879_K148: sol, 231; for isoTOP-ABPP ratio, lysine O14879_K148: 50 uM_231_sol_in vitro. The essentials: (§1)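 Cell lysate (0.5 ml) was pre-treated with fragment, 50 μM for activated esters or 100 μM for guanidinylating agents, versus DMSO, then labeled 1 h at ambient temperature with 0.1 mM STP-alkyne. Light/heavy TEV tags attached by CuAAC; R = DMSO/compound MS1 peak-area ratio, median per lysine.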

Experiment [2] has as its target T2, ATP6V1F V-type proton ATPase subunit F (Homo sapiens, UniProt Q16864).
T2 construct: isoTOP-ABPP experiments performed in cell lysates (in vitro); endogenous in cells; host or cells: soluble proteome of human cancer cell lines (MDA-MB-231; Ramos and Jurkat also prepared)
The format is binding. To be noted: for isoTOP-ABPP ratio (R) at liganded lysine Q16864_K6: sol, 231; for isoTOP-ABPP ratio, lysine Q16864_K6: 50 uM_231_sol_in vitro. The essentials: as §1

Experiment [3] addresses T3, TARDBP TAR DNA-binding protein 43 (Homo sapiens, UniProt Q13148).
T3 construct: isoTOP-ABPP experiments performed in cell lysates (in vitro); endogenous in cells; host or cells: soluble proteome of human cancer cell lines (MDA-MB-231, Ramos, Jurkat)
The following applies: for isoTOP-ABPP ratio (R) at liganded lysine Q13148_K114: sol, 231; for isoTOP-ABPP ratio, lysine Q13148_K114: 50 uM_231_sol_in vitro. The essentials:
as §1

The target of experiment [4] is T4, EEF1G Elongation factor 1-gamma (Homo sapiens, UniProt P26641).
T4 construct: isoTOP-ABPP experiments performed in cell lysates (in vitro); endogenous in cells; host or cells: soluble proteome of human cancer cell lines (MDA-MB-231; Ramos and Jurkat also prepared)
The format is binding. To be noted: for isoTOP-ABPP reactivity ratio at lysine P26641_K227 / isoTOP-ABPP ratio (R) at liganded lysine P26641_K227: 50 uM, in vitro; for isoTOP-ABPP reactivity ratio at lysine P26641_K227: 231 sol; for isoTOP-ABPP ratio (R) at liganded lysine P26641_K227: sol, 231; for isoTOP-ABPP ratio, lysine P26641_K227: 50 uM_231_sol_in vitro. The essentials:
as §1

Molecules are shown by their SMILES.

T2 sequence (Q16864 whole entry): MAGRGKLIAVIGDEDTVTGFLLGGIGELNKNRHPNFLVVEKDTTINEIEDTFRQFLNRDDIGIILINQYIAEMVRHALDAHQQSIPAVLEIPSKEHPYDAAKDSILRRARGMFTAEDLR
T3 sequence (Q13148 whole entry): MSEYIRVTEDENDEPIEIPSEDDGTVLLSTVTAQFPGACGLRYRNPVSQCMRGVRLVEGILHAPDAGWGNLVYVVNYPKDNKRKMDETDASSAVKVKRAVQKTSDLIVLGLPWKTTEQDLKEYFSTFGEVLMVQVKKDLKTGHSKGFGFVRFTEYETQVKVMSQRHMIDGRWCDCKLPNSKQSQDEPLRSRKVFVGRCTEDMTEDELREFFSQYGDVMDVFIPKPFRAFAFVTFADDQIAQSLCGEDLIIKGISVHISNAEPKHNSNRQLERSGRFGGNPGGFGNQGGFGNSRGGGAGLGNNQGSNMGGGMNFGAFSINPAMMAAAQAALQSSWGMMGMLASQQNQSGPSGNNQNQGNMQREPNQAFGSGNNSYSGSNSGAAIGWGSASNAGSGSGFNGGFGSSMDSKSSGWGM
T4 sequence (P26641 whole entry): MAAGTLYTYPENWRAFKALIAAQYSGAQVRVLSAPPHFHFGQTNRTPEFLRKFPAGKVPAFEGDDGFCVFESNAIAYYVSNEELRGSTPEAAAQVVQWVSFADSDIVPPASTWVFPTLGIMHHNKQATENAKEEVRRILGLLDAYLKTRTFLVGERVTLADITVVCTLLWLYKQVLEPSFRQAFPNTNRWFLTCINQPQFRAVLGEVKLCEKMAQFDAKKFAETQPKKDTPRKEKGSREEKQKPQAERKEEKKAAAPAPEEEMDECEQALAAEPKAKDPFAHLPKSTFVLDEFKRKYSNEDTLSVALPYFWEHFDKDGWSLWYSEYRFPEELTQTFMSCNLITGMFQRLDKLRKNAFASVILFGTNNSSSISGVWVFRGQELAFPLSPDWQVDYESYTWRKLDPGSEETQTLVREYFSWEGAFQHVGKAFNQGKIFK

Consider `O=C(CCc1cn(-c2ccccc2)nc1-c1ccccc1)Oc1c(F)c(F)c(F)c(F)c1F` [fragment 19, Pentafluorophenyl 3-(1,3-diphenyl-1H-pyrazol-4-yl)propanoate], for which the “R value (DMSO/fragment) for probe 1 labeling” value in experiment [1] (O14879_K148, 50 uM, 231 sol, in vitro) is recorded as 0.9.
As to `Cn1cc(CC(=O)Oc2c(F)c(F)c(F)c(F)c2F)c2ccccc21` [fragment 22, Pentafluorophenyl 2-(1-methyl-1H-indol-3-yl)acetate], the “R value (DMSO/fragment) for probe 1 labeling” value is 1.1 in experiment [2] (Q16864_K6, 50 uM, 231 sol, in vitro) and 0.8 in experiment [3] (Q13148_K114, 50 uM, 231 sol, in vitro).
For the molecule `O=C(Oc1c(F)c(F)c(F)c(F)c1F)C1CCN(C(=O)OCc2ccccc2)CC1` [fragment 24, 1-Benzyl 4-(pentafluorophenyl) piperidine-1,4-dicarboxylate], the “isoTOP-ABPP reactivity ratio at lysine P26641_K227” value in experiment [4] turned out to be 0.9. In experiment [1] (50 uM, 231 sol, in vitro), the “isoTOP-ABPP reactivity ratio at lysine O14879_K148” value turned out to be 1.3. In addition, in experiment [3] (50 uM, 231 sol, in vitro), the “isoTOP-ABPP reactivity ratio at lysine Q13148_K114” value is listed as 1.0.
In the case of `O=C(Oc1c(F)c(F)c(F)c(F)c1F)c1ccc2ccccc2n1` [fragment 25, Pentafluorophenyl quinoline-2-carboxylate], in experiment [4], the “isoTOP-ABPP reactivity ratio at lysine P26641_K227” value amounted to 1.1. Also, the “isoTOP-ABPP reactivity ratio at lysine O14879_K148” value in experiment [1] (50 uM, 231 sol, in vitro) was 1.9.
The matching figures for `O=C(CCc1coc2cc(F)ccc2c1=O)Oc1c(F)c(F)c(F)c(F)c1F` [fragment 26, Pentafluorophenyl 3-(7-fluoro-4-oxo-4H-chromen-3-yl)propanoate]: 0.8 and 1.4.
For `O=C(CN1C(=O)c2ccccc2C1=O)Oc1c(F)c(F)c(F)c(F)c1F` [fragment 27, Pentafluorophenyl 2-(1,3-dioxoisoindolin-2-yl)acetate] the same measures were 1.2 and 0.9.
For `CCn1cc(C(=O)Oc2c(F)c(F)c(F)c(F)c2F)c(=O)c2ccc(C)nc21` [fragment 28, Pentafluorophenyl 1-ethyl-7-methyl-4-oxo-1,4-dihydro-1,8-naphthyridine-3-carboxylate] the same measures were 15.0 and 1.0.
For the molecule `O=C(Oc1ccc([N+](=O)[O-])cc1[N+](=O)[O-])c1cc(C(F)(F)F)cc(C(F)(F)F)c1` [fragment 31, 2,4-Dinitrophenyl 3,5-bis(trifluoromethyl)benzoate], the “isoTOP-ABPP reactivity ratio at lysine P26641_K227” value in experiment [4] is 2.2.
On to `COc1cc(CCC(=O)Oc2ccc([N+](=O)[O-])cc2[N+](=O)[O-])cc(OC)c1OC` [fragment 33, 2,4-Dinitrophenyl 3-(3,4,5-trimethoxyphenyl)propanoate], for which, in experiment [4], the “isoTOP-ABPP reactivity ratio at lysine P26641_K227” value is on record as 0.7. Moreover, the “isoTOP-ABPP reactivity ratio at lysine Q16864_K6” value in experiment [2] (50 uM, 231 sol, in vitro) is reported as 0.8.
Regarding `O=C(CCc1coc2cc(F)ccc2c1=O)Oc1ccc([N+](=O)[O-])cc1[N+](=O)[O-]` [fragment 36, 2,4-Dinitrophenyl 3-(7-fluoro-4-oxo-4H-chromen-3-yl)propanoate], the “isoTOP-ABPP ratio (R) at liganded lysine Q16864_K6” value in experiment [2] (50 uM, in vitro) amounted to 1.0. Moreover, the “isoTOP-ABPP ratio (R) at liganded lysine O14879_K148” value in experiment [1] (50 uM, in vitro) was found to be 3.4. Moreover, the “isoTOP-ABPP ratio (R) at liganded lysine Q13148_K114” value in experiment [3] (50 uM, in vitro) is given as 1.2.
Consider `O=C(Oc1ccc([N+](=O)[O-])cc1[N+](=O)[O-])c1ccc(-c2ccccc2)cc1` [fragment 37, 2,4-Dinitrophenyl [1,1′-biphenyl]-4-carboxylate], for which the “isoTOP-ABPP ratio (R) at liganded lysine Q16864_K6” value in experiment [2] (50 uM, in vitro) is recorded as 1.0. Moreover, in experiment [3] (50 uM, in vitro), the “isoTOP-ABPP ratio (R) at liganded lysine Q13148_K114” value is given as 1.3.
With `O=C(CC12CC3CC(CC(C3)C1)C2)Oc1ccc([N+](=O)[O-])cc1[N+](=O)[O-]` [fragment 38, 2,4-Dinitrophenyl 2-(adamantan-1-yl)acetate], the “isoTOP-ABPP ratio (R) at liganded lysine Q16864_K6” value in experiment [2] (50 uM, in vitro) is reported as 1.0.
As to `O=C(Oc1ccc([N+](=O)[O-])cc1[N+](=O)[O-])c1ccc(Oc2ccccc2)cc1` [fragment 39, 2,4-Dinitrophenyl 4-phenoxybenzoate], in experiment [2] (50 uM, in vitro), the “isoTOP-ABPP ratio (R) at liganded lysine Q16864_K6” value stood at 0.9. Moreover, in experiment [1] (50 uM, in vitro), the “isoTOP-ABPP ratio (R) at liganded lysine O14879_K148” value is recorded as 1.4. In addition, the “isoTOP-ABPP ratio (R) at liganded lysine Q13148_K114” value in experiment [3] (50 uM, in vitro) was determined as 0.9.
Take `O=C(Oc1ccc([N+](=O)[O-])cc1[N+](=O)[O-])c1ccccc1Nc1cccc(C(F)(F)F)c1` [fragment 40, 2,4-Dinitrophenyl 2-((3-(trifluoromethyl)phenyl)amino)benzoate]: the “isoTOP-ABPP ratio (R) at liganded lysine Q16864_K6” value in experiment [2] (50 uM, in vitro) is on record as 0.9.
In the case of `CC(C)(C)OC(=O)NCCCC(=O)Oc1ccc([N+](=O)[O-])cc1[N+](=O)[O-]` [fragment 41, 2,4-Dinitrophenyl 4-((tert-butoxycarbonyl)amino)butanoate], the “isoTOP-ABPP ratio (R) at liganded lysine P26641_K227” value in experiment [4] was 0.8. Also, the “isoTOP-ABPP ratio (R) at liganded lysine Q16864_K6” value in experiment [2] (50 uM, in vitro) worked out at 1.0.
In the case of `O=C(Oc1ccc([N+](=O)[O-])cc1[N+](=O)[O-])C(c1ccccc1)(c1ccccc1)c1ccccc1` [fragment 42, 2,4-Dinitrophenyl 2,2,2-triphenylacetate], in experiment [4], the “isoTOP-ABPP ratio (R) at liganded lysine P26641_K227” value stood at 0.7. Also, the “isoTOP-ABPP ratio (R) at liganded lysine Q16864_K6” value in experiment [2] (50 uM, in vitro) is recorded as 1.0. For the same molecule, in experiment [1] (50 uM, in vitro), the “isoTOP-ABPP ratio (R) at liganded lysine O14879_K148” value stood at 0.8.
`CC(=O)Oc1ccc([N+](=O)[O-])cc1[N+](=O)[O-]` [fragment 43, 2,4-Dinitrophenyl acetate]: the “isoTOP-ABPP ratio (R) at liganded lysine P26641_K227” value in experiment [4] amounted to 2.3. In addition, in experiment [2] (50 uM, in vitro), the “isoTOP-ABPP ratio (R) at liganded lysine Q16864_K6” value came to 20.0.
Consider `N#Cc1ccc(C(=O)Oc2ccc([N+](=O)[O-])cc2[N+](=O)[O-])cc1` [fragment 44, 2,4-Dinitrophenyl 4-cyanobenzoate], for which, in experiment [4], the “isoTOP-ABPP ratio, lysine P26641_K227” value was found to be 0.8. Besides, in experiment [2], the “isoTOP-ABPP ratio, lysine Q16864_K6” value came out at 1.2. The “isoTOP-ABPP ratio, lysine O14879_K148” value in experiment [1] came out at 2.2. For the same molecule, the “isoTOP-ABPP ratio, lysine Q13148_K114” value in experiment [3] came to 20.0.
The matching figures for `O=C(CCc1ccc2c(c1)OCO2)Oc1ccc([N+](=O)[O-])cc1[N+](=O)[O-]` [fragment 45, 2,4-Dinitrophenyl 3-(benzo[d][1,3]dioxol-5-yl)propanoate]: 0.6, 1.0, 2.7 and 20.0.
Take `O=C(ON1C(=O)CCC1=O)c1cc(C(F)(F)F)cc(C(F)(F)F)c1` [fragment 46, 3,5-Bis(trifluoromethyl)benzoic acid NHS ester]: the “isoTOP-ABPP ratio, lysine P26641_K227” value in experiment [4] is 0.6. For the same molecule, in experiment [2], the “isoTOP-ABPP ratio, lysine Q16864_K6” value is 20.0. The “isoTOP-ABPP ratio, lysine O14879_K148” value in experiment [1] worked out at 2.2.
Consider `O=C(Oc1c(F)c(F)cc(F)c1F)c1cc(C(F)(F)F)cc(C(F)(F)F)c1` [fragment 48, 2,3,5,6-Tetrafluorophenyl 3,5-bis(trifluoromethyl)benzoate], for which the “isoTOP-ABPP ratio, lysine O14879_K148” value in experiment [1] is recorded as 0.7.

Source of the values: patent US20210255193A1, “LYSINE REACTIVE PROBES AND USES THEREOF” (The Scripps Research Institute, priority 2017, published 2021).
